Tests used:
[1] = system: Rattus norvegicus; assay: In vivo antiinflammatory potency in rat air pouch model expressed as inhibition of white blood cell infiltration following oral dosage of 6.1 mg/kg ([…]); assay type: functional
[2] = system: Rattus norvegicus; assay: In vivo antiinflammatory potency in rat air pouch model expressed as inhibition of PGE-2 production following oral dosage of 6.1 mg/kg ([…]); assay type: functional
[3] = biological target: Prostaglandin G/H synthase 1 (Homo sapiens, UniProt P23219); assay type: tissue-based, Blood
Sequence of Prostaglandin G/H synthase 1 (P23219 whole entry): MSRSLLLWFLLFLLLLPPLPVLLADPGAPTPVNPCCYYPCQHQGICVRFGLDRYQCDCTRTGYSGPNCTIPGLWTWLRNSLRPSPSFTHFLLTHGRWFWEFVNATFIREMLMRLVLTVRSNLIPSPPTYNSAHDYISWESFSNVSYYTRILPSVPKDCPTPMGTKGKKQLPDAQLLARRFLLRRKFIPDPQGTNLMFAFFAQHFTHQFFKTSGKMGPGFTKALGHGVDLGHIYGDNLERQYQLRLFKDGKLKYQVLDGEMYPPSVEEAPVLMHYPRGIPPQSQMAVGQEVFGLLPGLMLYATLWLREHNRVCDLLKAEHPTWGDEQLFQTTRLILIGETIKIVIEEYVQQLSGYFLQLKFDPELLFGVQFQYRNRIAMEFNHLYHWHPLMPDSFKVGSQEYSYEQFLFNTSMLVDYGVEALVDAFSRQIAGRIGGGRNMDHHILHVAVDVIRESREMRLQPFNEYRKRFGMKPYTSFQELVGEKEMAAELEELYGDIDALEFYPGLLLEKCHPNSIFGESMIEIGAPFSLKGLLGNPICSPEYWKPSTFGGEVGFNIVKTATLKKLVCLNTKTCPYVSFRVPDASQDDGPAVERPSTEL
Description: In vitro inhibitory concentration against Prostaglandin G/H synthase 1 (COX-1) in human whole blood

[4] = biological target: T1, Prostaglandin G/H synthase 2 (Homo sapiens, UniProt P35354)
T1 sequence (P35354 whole entry): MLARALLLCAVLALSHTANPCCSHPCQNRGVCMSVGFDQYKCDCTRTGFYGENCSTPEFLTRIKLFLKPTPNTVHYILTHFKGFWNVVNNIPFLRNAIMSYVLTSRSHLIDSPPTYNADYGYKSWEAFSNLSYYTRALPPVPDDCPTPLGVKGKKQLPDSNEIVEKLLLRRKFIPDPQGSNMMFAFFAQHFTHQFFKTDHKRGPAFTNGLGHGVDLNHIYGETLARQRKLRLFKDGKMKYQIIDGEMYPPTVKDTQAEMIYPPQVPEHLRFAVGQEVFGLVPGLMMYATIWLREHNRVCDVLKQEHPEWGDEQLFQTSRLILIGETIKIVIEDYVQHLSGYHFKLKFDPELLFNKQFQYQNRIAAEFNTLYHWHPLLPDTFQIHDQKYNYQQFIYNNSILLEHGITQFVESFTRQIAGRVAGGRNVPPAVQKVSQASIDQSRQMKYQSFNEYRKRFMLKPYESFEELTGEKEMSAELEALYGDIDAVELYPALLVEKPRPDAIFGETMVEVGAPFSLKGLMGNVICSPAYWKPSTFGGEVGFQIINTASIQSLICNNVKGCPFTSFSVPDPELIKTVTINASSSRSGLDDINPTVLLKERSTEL
Description: In vitro inhibitory concentration against Prostaglandin G/H synthase 2 (COX-2) in human whole blood

[5] = species: Rattus norvegicus; assay: animal or person; details: po, read-out: Inhibition
Description: In vivo antiinflammatory potency in rat air pouch model expressed as inhibition of white blood cell infiltration following oral dosage of 5.4 mg/kg (15 mmol)

[6] = species: Rattus norvegicus; assay: animal or person; details: po, read-out: Inhibition; remark: listed apart in the source
Description: In vivo antiinflammatory potency in rat air pouch model expressed as inhibition of PGE-2 production following oral dosage of 5.4 mg/kg (15 mmol)

Structure (SMILES)	inhibition in vivo at 6.1 mg/kg [1] [%]	inhibition in vivo at 6.1 mg/kg [2] [%]	IC50 [3] [µM]	IC50 [4] [µM]	inhibition in vivo at 5.4 mg/kg [5] [%]	inhibition in vivo at 5.4 mg/kg [6] [%]
CS(=O)(=O)c1ccc(-c2cc(C(F)(F)F)cnc2C(=O)c2ccccc2)cc1	46.2	58.9	14	0.25	–	–
Cc1ccc(-c2ncc(Cl)cc2-c2ccc(S(C)(=O)=O)cc2)cn1 [ETORICOXIB]	–	–	> 200	–	45	61

Source: ChEMBL document CHEMBL1144447, “3-[4-(methylsulfonyl)phenyl]-5-(trifluoromethyl)(2-pyridyl) phenyl ketone as a potent and orally active cyclooxygenase-2 selective inhibitor: synthesis and biological evaluation” (J Med Chem, 2005)
